Data on two compounds can be found in patent US7321056B2, “Selective peroxisome proliferator activated receptor modulators” (Eli Lilly and Company, priority 2003, dated 2008).

Structures are written as SMILES.

The target of one series is T1, PPARγ (Homo sapiens, UniProt P37231).
T1 sequence (P37231 238-505 limits assumed): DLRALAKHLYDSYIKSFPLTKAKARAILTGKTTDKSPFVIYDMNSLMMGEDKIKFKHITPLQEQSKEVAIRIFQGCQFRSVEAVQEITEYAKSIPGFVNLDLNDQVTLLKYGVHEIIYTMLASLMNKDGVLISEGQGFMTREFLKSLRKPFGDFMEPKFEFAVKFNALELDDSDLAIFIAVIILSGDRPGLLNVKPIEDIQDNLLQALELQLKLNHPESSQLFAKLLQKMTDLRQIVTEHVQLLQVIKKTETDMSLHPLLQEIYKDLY
The experiment in a line: Cotransfection (CTF) / response element assays, PPARγ in CV-1 cells. Type of series: cell-based. Further details: Gla4 Eff; other: response element assay, GAL4 chimeric system; A PPARγ bacterial galactosidase (GAL4) chimeric system is also used. The settings on record: response element assay, GAL4 chimeric system; for EC50: read-out: Gla4 EC50. The source says:
PPARγ or PPARα are constitutively expressed using plasmids containing the cytomegalovirus promoter. Reporter plasmids for the PPARγ CTF assays contain PPREs from the following genes: acyl coA oxidase (AOX); apolipoprotein A1 (ApoA1); lipoprotein lipase (LPL); or enoyl-CoA hydratase/3-hydroxyacyl-CoA dehydrogenase (HD) plus the thymidine kinase (TK) promoter upstream of the luciferase reporter cDNA. A PPARγ […] galactosidase (GAL4) chimeric system is also used. For PPARα, a GAL4 chimeric system is the standard CTF assay performed. All assays are done in CV-1 cells. Compounds are tested in full log dilution, from 0.1 nM to 10 μM in duplicate. Percent efficacies are determined relative to reference molecules with the efficacy value reflecting the greatest amount of agonist activity achieved in the CTF assay for each compound. Median effective concentration (EC50) values are determined by computer fit to a concentration-response curve. An EC50 value is not calculated if the efficacy for the compound is <20%. Reported values represent means from two to nine separate experiments.

Compound `COc1ccc(CCNC(=O)COc2ccc(C[C@H](OC)C(=O)O)cc2)cc1` [formula III, (2S)-3-(4-{[2-(4-methoxy-phenyl)-ethylcarbamoyl]-methoxy}-phenyl)-2-methoxy-propionic acid] gave a melting point of 97 to 98 °C. Also, on PPARγ, the “Gla4 Eff” value was 30 % efficacy and the EC50 turned out to be 1980 nM.

On to `CCOc1ccc(CCNC(=O)COc2ccc(C[C@H](OC)C(=O)O)cc2)cc1` [formula V, (S)-3-(4-{[2-(4-ethoxy-phenyl)-ethylcarbamoyl]-methoxy}-phenyl)-2-methoxy-propionic acid], for which, on PPARγ, the “Gla4 Eff” value stood at 39 % efficacy and the EC50 turned out to be 1910 nM.

A word on the melting point: it is the temperature, or range, at which the solid turns liquid. The term EC50 denotes the concentration needed to bring the measured effect to its halfway point.
